ChEMBL document CHEMBL3885861, “Open TG-GATES”

Organism: Rattus norvegicus
Experiment: Open TG-GATES - Regimen: Daily Repeat
Type: toxicity, organism-based, Sprague-Dawley
Set-up: regimen Daily Repeat, gender Male, age 6 weeks
Conditions: in vivo, po, route gavage; for gamma-GTP / ALP / ALT / AST / CRE / Ca / Cl / DBIL / GLC / IP / K / LDH / Na / PL / RALB / TBIL / TC / TG / TP / BUN: tissue Plasma; for KIDNEY_L / KIDNEY_R / KIDNEY_TOTAL: tissue Kidney
[1] = 75 mg/kg, 72 h, dose level Middle, time 3 day
[2] = 75 mg/kg, 72 h, tissue Blood, dose level Middle, time 3 day
[3] = 75 mg/kg, […], dose level Middle, time 7 day
[4] = 75 mg/kg, […], dose level Middle, time 14 day
[5] = 75 mg/kg, […], dose level Middle, time 28 day
[6] = 75 mg/kg, […], tissue Blood, dose level Middle, time 7 day
[7] = 75 mg/kg, […], tissue Blood, dose level Middle, time 14 day
[8] = 75 mg/kg, […], tissue Blood, dose level Middle, time 28 day

## O=C1CN(/N=C/c2ccc(-c3ccc([N+](=O)[O-])cc3)o2)C(O)=N1 [DANTROLENE]
25 mg/kg, […], dose level Low, time 28 day
  gamma-GTP: 1.6 IU/L
[1]
  TERMINAL_BW: 213.7 g
  KIDNEY_L: 1 g
  KIDNEY_R: 1 g
  KIDNEY_TOTAL: 2 g
  ALP: 615 IU/L
  ALT: 30.2 IU/L
  AST: 63.2 IU/L
  CRE: 0.6 mg/dL
  Ca: 10.8 mg/dL
  Cl: 105.2 meq/L
  DBIL: 0.01 mg/dL
  GLC: 188 mg/dL
  IP: 6 mg/dL
  K: 4.2 meq/L
  LDH: 107.2 IU/L
  Na: 140.6 meq/L
  PL: 142 mg/dL
  RALB: 3.9 g/dL
  TBIL: 0.3 mg/dL
  TC: 75.4 mg/dL
  TG: 52.4 mg/dL
  TP: 5.8 g/dL
  gamma-GTP: 1 IU/L
[2]
  APTT: 19.1 s
  Bas: 0%
  Eos: 1%
  Fbg: 223.4 mg/dL
  Hb: 14.1 g/dL
  Lym: 81.8%
  MCH: 21.6 pg
  MCHC: 33.8%
  MCV: 63.8 fL
  Mono: 7%
  Plat: 126.6 x10_4/uL
  RBC: 656.2 x10_4/ul
  Ret: 2.9%
  WBC: 97.1 x10_2/uL
[3]
  TERMINAL_BW: 242.5 g
  KIDNEY_L: 1.1 g
  KIDNEY_R: 1.1 g
  KIDNEY_TOTAL: 2.1 g
  ALP: 857.6 IU/L
  ALT: 34 IU/L
  AST: 61.2 IU/L
  BUN: 18.2 mg/dL
  CRE: 0.5 mg/dL
  Ca: 10.8 mg/dL
  Cl: 108.6 meq/L
  DBIL: 0.014 mg/dL
  GLC: 185.6 mg/dL
  IP: 6.9 mg/dL
  K: 4.8 meq/L
  LDH: 107.4 IU/L
  Na: 139.6 meq/L
  PL: 139.4 mg/dL
  RALB: 3.8 g/dL
  TBIL: 0.4 mg/dL
  TC: 65.6 mg/dL
  TG: 74.4 mg/dL
  TP: 5.7 g/dL
  gamma-GTP: 1.4 IU/L
[4]
  TERMINAL_BW: 289.9 g
  KIDNEY_L: 1.2 g
  KIDNEY_R: 1.2 g
  KIDNEY_TOTAL: 2.4 g
  ALP: 636.8 IU/L
  ALT: 30.6 IU/L
  AST: 57.4 IU/L
  BUN: 19.6 mg/dL
  CRE: 0.6 mg/dL
  Ca: 10.8 mg/dL
  Cl: 105.4 meq/L
  DBIL: 0.016 mg/dL
  GLC: 186.8 mg/dL
  IP: 6.5 mg/dL
  K: 3.9 meq/L
  LDH: 101.8 IU/L
  Na: 141 meq/L
  PL: 160.6 mg/dL
  RALB: 3.8 g/dL
  TBIL: 0.4 mg/dL
  TC: 66.4 mg/dL
  TG: 130.4 mg/dL
  TP: 5.9 g/dL
  gamma-GTP: 0.6 IU/L
[5]
  TERMINAL_BW: 346.6 g
  KIDNEY_L: 1.4 g
  KIDNEY_R: 1.4 g
  KIDNEY_TOTAL: 2.8 g
  ALP: 509.8 IU/L
  ALT: 31.8 IU/L
  AST: 53 IU/L
  BUN: 18.8 mg/dL
  CRE: 0.5 mg/dL
  Ca: 10.7 mg/dL
  Cl: 106.4 meq/L
  DBIL: 0.05 mg/dL
  GLC: 179.8 mg/dL
  IP: 6.2 mg/dL
  K: 4.2 meq/L
  LDH: 122.4 IU/L
  Na: 140 meq/L
  PL: 169.6 mg/dL
  RALB: 4 g/dL
  TBIL: 0.2 mg/dL
  TC: 72.4 mg/dL
  TG: 139.8 mg/dL
  TP: 6.2 g/dL
  gamma-GTP: 1.2 IU/L
[6]
  APTT: 17.1 s
  Bas: 0%
  Eos: 1%
  Fbg: 207.4 mg/dL
  Hb: 14.3 g/dL
  Lym: 77.8%
  MCH: 21.1 pg
  MCHC: 33.5%
  MCV: 63 fL
  Mono: 8.4%
  RBC: 679 x10_4/ul
  Ret: 5.6%
  WBC: 121.9 x10_2/uL
[7]
  APTT: 16.7 s
  Bas: 0%
  Eos: 0.6%
  Fbg: 222.4 mg/dL
  Hb: 15.3 g/dL
  Lym: 83.6%
  MCH: 21 pg
  MCHC: 34%
  MCV: 61.8 fL
  Mono: 5.8%
  Plat: 114.6 x10_4/uL
  RBC: 727.2 x10_4/ul
  Ret: 4.7%
  WBC: 127.2 x10_2/uL
[8]
  APTT: 16.8 s
  Bas: 0%
  Eos: 1.2%
  Fbg: 231.8 mg/dL
  Hb: 15.7 g/dL
  Ht: 46.3%
  Lym: 79.4%
  MCH: 19.5 pg
  MCHC: 33.9%
  MCV: 57.5 fL
  Mono: 5.4%
  Plat: 118.7 x10_4/uL
  RBC: 806.6 x10_4/ul
  Ret: 4.4%
250 mg/kg, 72 h, dose level High, time 3 day
  TERMINAL_BW: 193.8 g
